Data on 14 compounds can be found in patent US20180251425A1, “2,3,5 TRISUBSTITUTED PYRROLE DERIVATIVES AS TOPOISOMERASE INHIBITORS AND THERAPEUTIC USES THEREOF” (UNIVERSITY OF MYSORE, priority 2015, published 2018).

Holding throughout (format): cell-based
In one experiment the test system is Reh. As to the kind of experiment: Cytotoxicity (MTT / trypan blue) in Reh cells. The conditions noted are these: Homo sapiens, read-out: Cytotoxicity IC 50 in μM (Cell lines) Reh. The procedure: (§1) Human cancer cell lines, K562, MCF7, HeLa and HEK 293T were purchased from National Centre for Cell Science, Pune, India. Cells were grown in RPMI 1640/MEM/DMEM supplemented with 10% heat-inactivated fetal bovine serum (FBS), 100 U/mL of Penicillin, and 100 μg of streptomycin/mL and incubated at 37° C. in a humidified atmosphere containing 5% CO2.
(§2) Nalm6, Molt4 and Reh cells were provided by Dr. Sathees C. Raghavan, Department of Biochemistry, IISc, Bangalore. The cells were grown under the similar culture conditions as mentioned above.
(§3) The human T cell leukemia cell line Molt4, Human acute lymphoblastic leukemia (ALL) cell line Nalm6, Human acute myelocytic leukemia (AML) cell line Reh, chronic myelogenous leukemia (CML) cell line K562, Human breast adenocarcinoma cell lines like MCF7 and human kidney cell line HEK 293T (Human embryonic kidney cell line) were selected for the purpose of preliminary anticancer screening of newly synthesized compounds (ASR1 to ASR15). To check the cytotoxicity, trypan blue dye exclusion assays, MTT assay were employed as described earlier Further, Cell cycle analysis, Mitochondrial membrane potential, Annexin-V FITC staining assay were also performed in order to understand the mode of cell death after treatment with ASR6. Further, ASR6 was also tested for its ability to inhibit topoisomerase I and II activity in vitro.
(§4) Cytotoxic effect of the newly synthesized compounds against leukemic cells was assessed using 3-(4, 5-dimethyl-2-yl02, 5-diphenyl tetrazolium bromide (MTT) assay. After exposure of compound at different concentration (0.01, 0.1, 0.5, 1, 10, 50 and 100 μM) cells were harvested and transferred into 96 well plate, MTT (5 mg/ml) was added and incubate at 37° C. for 4 h and formazan crystals were dissolved by adding solubilizing agent (10% SDS and 50% dimethyl formamide) for 1 h, finally plate was read at 570 nm (Bio-Rad, USA). Results were represented as inhibition of percentage of cell proliferation in bar diagram (n=3) (FIGS. 1 A, C, E and G).
(§5) To determine the growth inhibitory activity of the drug, 0.5×10^5 cell/ml were plated in 24 well (Biofil, USA.) in 1 ml of complete medium and treated with various concentration of the compound to test, cells were stained with 0.4% trypan blue and counted on a hemocytometer after treatment with compounds at 48 and 72 h time point. Results were represented as number of viable cells/ml in bar diagram (FIGS. 1 B, D, F, and H) (n=3).

Another experiment relates to Nalm6. As to the kind of experiment: Cytotoxicity (MTT / trypan blue) in Nalm6 cells. To be noted: Homo sapiens, NALM-6, read-out: Cytotoxicity IC 50 in μM (Cell lines) Nalm6. The procedure:
as §1, §2, §3, §4, §5

In a further experiment the test system is HeLa. Nature of the experiment: Cytotoxicity in HeLa cells. The conditions noted are these: Homo sapiens, read-out: Cytotoxicity IC 50 in μM (Cell lines) HeLa. As for the experimental part: as §1
as §4, with “G). […]” for “G).”

The subject of the next experiment is MCF7. Nature of the experiment: Cytotoxicity in MCF7 cells. The conditions noted are these: Homo sapiens, read-out: Cytotoxicity IC 50 in μM (Cell lines) MCF7. As for the experimental part:
as §1, §3, §4, §5

The next experiment deals with Molt4. Nature of the experiment: Cytotoxicity (MTT / trypan blue) in Molt4 cells. The conditions noted are these: Homo sapiens, MOLT-4, read-out: Cytotoxicity IC 50 in μM (Cell lines) Molt4. As for the experimental part:
as §1, §2, §3, §4, §5

The next experiment has as its system K562. Nature of the experiment: Cytotoxicity (MTT / trypan blue) in K562 cells. The conditions noted are these: Homo sapiens, read-out: Cytotoxicity IC 50 in μM (Cell lines) K562. As for the experimental part: as §1, §3, §4, §5

The structures appear in SMILES notation.

Consider `CCOC(=O)c1[nH]c(-c2cc(OC)c(OC)c(OC)c2)cc1-c1cccs1` [ASR14, Ethyl 3-(thiophen-2-yl)-5-(3,4,5-trimethoxyphenyl)-1H-pyrrole-2-carboxylate], for which the IC50 was over 100 µM in the experiment on Reh; 10.5 µM with Nalm6; over 100 µM in the experiment on HeLa; over 100 µM with MCF7; 15.2 µM with Molt4; over 100 µM in the experiment on K562.

On to `COC(=O)c1[nH]c(-c2ccc(C)cc2)cc1-c1cccc([N+](=O)[O-])c1` [ASR13, Methyl 3-(3-nitrophenyl)-5-p-tolyl-1H-pyrrole-2-carboxylate], for which the IC50 in the experiment on Reh is over 100 µM; with Nalm6, 11 µM; in the experiment with HeLa, over 100 µM; in the experiment on MCF7, over 100 µM; in the experiment with Molt4, 8.84 µM; in the experiment on K562 it was over 100 µM.

Regarding `CCOC(=O)c1[nH]c(-c2ccc(C)cc2)cc1-c1ccc(C#N)cc1` [ASR5, Ethyl 3-(4-cyanophenyl)-5-p-tolyl-1H-pyrrole-2-carboxylate], the IC50 in the experiment on Reh is over 100 µM; with Nalm6 it was over 50 µM; in the experiment on HeLa, over 100 µM; with MCF7, over 100 µM; with Molt4 it was over 50 µM; with K562, over 100 µM.

Turning to `CCOC(=O)c1[nH]c(-c2cccs2)cc1-c1cccs1` [ASR8, Ethyl 3,5-di(thiophen-2-yl)-1H-pyrrole-2-carboxylate], the IC50 is over 100 µM with Reh; over 50 µM in the experiment on Nalm6; over 100 µM in the experiment with HeLa; over 100 µM with MCF7; 35.3 µM in the experiment on Molt4; over 100 µM with K562.

As for `CCOC(=O)c1[nH]c(-c2cccs2)cc1-c1ccc(Br)cc1` [ASR9, Ethyl 3-(4-bromophenyl)-5-(thiophen-2-yl)-1H-pyrrole-2-carboxylate], the IC50 was over 100 µM in the experiment on Reh; over 50 µM with Nalm6; over 100 µM in the experiment with HeLa; over 100 µM in the experiment on MCF7; 50 µM in the experiment on Molt4; over 100 µM in the experiment with K562.

Turning to `CCOC(=O)c1[nH]c(-c2ccc(OC)cc2)cc1-c1cccc(C)c1` [ASR2, Ethyl 5-(4-methoxyphenyl)-3-m-tolyl-1H-pyrrole-2-carboxylate], the IC50 is over 100 µM in the experiment on Reh; over 50 µM in the experiment with Nalm6; over 100 µM in the experiment with HeLa; over 100 µM in the experiment on MCF7; over 50 µM with Molt4; over 100 µM with K562.

Take `CCOC(=O)c1[nH]c(-c2ccc(C)cc2)cc1-c1cccc([N+](=O)[O-])c1` [ASR4, Ethyl 3-(3-nitrophenyl)-5-p-tolyl-1H-pyrrole-2-carboxylate]: the IC50 in the experiment on Reh was over 100 µM; in the experiment with Nalm6, over 50 µM; in the experiment on HeLa, over 100 µM; with MCF7 it was over 100 µM; with Molt4, over 50 µM; in the experiment with K562, over 100 µM.

With `CCOC(=O)c1[nH]c(-c2ccc(OC)c(OC)c2)cc1-c1ccncc1` [ASR12, Ethyl 5-(3,4-dimethoxyphenyl)-3-(pyridin-4-yl)-1H-pyrrole-2-carboxylate], the IC50 in the experiment with Reh was over 100 µM; in the experiment with Nalm6, 14.3 µM; with HeLa, over 100 µM; in the experiment with MCF7 it was over 100 µM; in the experiment with Molt4, 26.1 µM; in the experiment with K562, over 100 µM.

For the compound `COC(=O)c1[nH]c(-c2cccc(OC)c2)cc1-c1ccc(C(F)(F)F)cc1` [ASR11, Methyl 5-(3-methoxyphenyl)-3-(4-(trifluoromethyl)phenyl)-1H-pyrrole-2-carboxylate], the IC50 was over 100 µM with Reh; 9.53 µM with Nalm6; over 100 µM with HeLa; over 100 µM with MCF7; 17 µM with Molt4; over 100 µM with K562.

Regarding `CCOC(=O)c1[nH]c(-c2ccccc2)cc1-c1ccccc1` [ASR1, Ethyl 3,5-diphenyl-1H-pyrrole-2-carboxylate], the IC50 was over 100 µM in the experiment on Reh; over 50 µM in the experiment with Nalm6; over 100 µM in the experiment with HeLa; over 100 µM in the experiment on MCF7; over 50 µM with Molt4; over 100 µM with K562.

For the compound `CCOC(=O)c1[nH]c(-c2ccc(OC)cc2)cc1-c1ccco1` [ASR3, Ethyl 3-(furan-2-yl)-5-(4-methoxyphenyl)-1H-pyrrole-2-carboxylate], the IC50 in the experiment with Reh was over 100 µM; with Nalm6 it was over 50 µM; in the experiment on HeLa, over 100 µM; in the experiment with MCF7 it was over 100 µM; in the experiment on Molt4, over 50 µM; in the experiment on K562 it was over 100 µM.

`CCOC(=O)c1[nH]c(-c2ccc(OC)c(OC)c2)cc1-c1ccc(C(F)(F)F)cc1` [ASR10, Ethyl 5-(3,4-dimethoxyphenyl)-3-(4-(trifluoromethyl)phenyl)-1H-pyrrole-2-carboxylate]: the IC50 in the experiment with Reh is over 100 µM; in the experiment on Nalm6, 20 µM; in the experiment with HeLa, over 100 µM; in the experiment on MCF7 it was over 100 µM; with Molt4 it was 7.96 µM; with K562 it was over 100 µM.

Turning to `CCOC(=O)c1[nH]c(-c2ccc(Cl)cc2)cc1-c1ccc2ccccc2c1` [ASR7, Ethyl 5-(4-chlorophenyl)-3-(naphthalen-2-yl)-1H-pyrrole-2-carboxylate], the IC50 is over 100 µM in the experiment with Reh; over 50 µM with Nalm6; over 100 µM with HeLa; over 100 µM with MCF7; 30.8 µM in the experiment on Molt4; over 100 µM in the experiment with K562.

As to `CCOC(=O)c1[nH]c(-c2cccc(OC)c2)cc1-c1ccncc1` [ASR15, Ethyl 5-(3-methoxyphenyl)-3-(pyridin-4-yl)-1H-pyrrole-2-carboxylate], the IC50 in the experiment with Reh was over 100 µM; in the experiment with Nalm6, 5.4 µM; with HeLa, over 100 µM; in the experiment with MCF7, over 100 µM; in the experiment on Molt4 it was 12.9 µM; in the experiment on K562, over 100 µM.
